According to patent publication US9925193B2, “Thioether derivatives as protein kinase inhibitors” (KTB TUMORFORSCHUNGSGESELLSCHAFT MBH, priority 2012, dated 2018):

Assays:
AXL = molecular target: T1, AXL (Homo sapiens, UniProt P30530); test: 33PanQinase Activity Assay, AXL; format: biochemical; conditions: recombinant human protein kinase, 1 μM [γ-33P]-ATP, 30° C. 80 minutes
T1 construct: made in house; host or cells: Sf9 insect cells (baculovirus)
T1 sequence (P30530 26-894): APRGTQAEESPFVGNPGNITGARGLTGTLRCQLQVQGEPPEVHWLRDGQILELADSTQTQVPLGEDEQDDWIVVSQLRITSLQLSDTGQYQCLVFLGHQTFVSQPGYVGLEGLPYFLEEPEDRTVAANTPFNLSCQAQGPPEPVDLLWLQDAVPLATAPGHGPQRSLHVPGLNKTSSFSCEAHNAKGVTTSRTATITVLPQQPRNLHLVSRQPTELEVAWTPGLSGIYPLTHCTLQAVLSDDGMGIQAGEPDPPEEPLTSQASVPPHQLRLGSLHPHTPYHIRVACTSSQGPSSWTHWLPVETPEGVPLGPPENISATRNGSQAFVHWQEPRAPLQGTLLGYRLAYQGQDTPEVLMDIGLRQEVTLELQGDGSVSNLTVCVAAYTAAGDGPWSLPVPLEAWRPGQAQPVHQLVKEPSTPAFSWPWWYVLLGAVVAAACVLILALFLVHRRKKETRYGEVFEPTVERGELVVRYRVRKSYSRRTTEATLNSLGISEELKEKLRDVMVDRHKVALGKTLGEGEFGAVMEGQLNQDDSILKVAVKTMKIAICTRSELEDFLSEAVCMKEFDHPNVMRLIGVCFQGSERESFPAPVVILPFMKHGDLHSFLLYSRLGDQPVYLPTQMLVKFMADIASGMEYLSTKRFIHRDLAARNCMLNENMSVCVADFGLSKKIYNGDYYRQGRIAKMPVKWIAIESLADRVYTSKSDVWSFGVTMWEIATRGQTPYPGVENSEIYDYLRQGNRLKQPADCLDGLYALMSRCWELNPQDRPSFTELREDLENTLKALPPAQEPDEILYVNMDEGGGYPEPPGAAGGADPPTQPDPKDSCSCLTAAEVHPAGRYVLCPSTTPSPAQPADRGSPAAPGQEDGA
Method: (§1) The effect of the thioether derivatives 8a-v and 9a-i was tested on recombinant, human protein kinases. All protein kinases were expressed in Sf9 insect cells as human recombinant GST-fusion proteins or as His-tagged proteins by means of the baculovirus expression system. Protein kinases were purified by affinity chromatography using either GSH-agarose or Ni-NTH-agarose. The purity and identity of each was checked by SDS-PAGE/silver staining and by western blot analysis with specific antibodies.
(§2) A proprietary protein kinase assay (^33PanQinase® Activity Assay) was used for measuring the kinase activity. All kinase assays were performed in 96-well FlashPlates™ in a 50 μl reaction volume. The assay for all enzymes contained 60 mM HEPES-NaOH, pH 7.5, 3 mM MgCl2, 3 mM MnCl2, 3 μM Na-orthovanadate, 1.2 mM DTT, 50 μg/ml PEG20000 and 1 μM [γ-^33P]-ATP (approx. 5×10^5 cpm per well).
(§3) The reaction cocktails were incubated at 30° C. for 80 minutes. The reaction was stopped with 50 μl of 2% (v/v) H3PO4, plates were aspirated and washed two times with 200 μl of 0.9% (w/v) NaCl. Incorporation of ^33Pi was determined with a microplate scintillation counter. All assays were performed with a BeckmanCoulter/Sagian robotic system.

VEGF-R2 = molecular target: T2, VEGF-R2 (Homo sapiens, UniProt P35968); test: 33PanQinase Activity Assay, VEGF-R2; format: biochemical; conditions: recombinant human protein kinase, 1 μM [γ-33P]-ATP, 30° C. 80 minutes
T2 construct: made in house; host or cells: Sf9 insect cells (baculovirus)
Method: as §1, §2, §3

SRC = molecular target: T3, SRC (Homo sapiens, UniProt P12931); test: 33PanQinase Activity Assay, SRC; format: biochemical; conditions: recombinant human protein kinase, 1 μM [γ-33P]-ATP, 30° C. 80 minutes
T3 construct: made in house; host or cells: Sf9 insect cells (baculovirus)
T3 sequence (P12931 whole entry): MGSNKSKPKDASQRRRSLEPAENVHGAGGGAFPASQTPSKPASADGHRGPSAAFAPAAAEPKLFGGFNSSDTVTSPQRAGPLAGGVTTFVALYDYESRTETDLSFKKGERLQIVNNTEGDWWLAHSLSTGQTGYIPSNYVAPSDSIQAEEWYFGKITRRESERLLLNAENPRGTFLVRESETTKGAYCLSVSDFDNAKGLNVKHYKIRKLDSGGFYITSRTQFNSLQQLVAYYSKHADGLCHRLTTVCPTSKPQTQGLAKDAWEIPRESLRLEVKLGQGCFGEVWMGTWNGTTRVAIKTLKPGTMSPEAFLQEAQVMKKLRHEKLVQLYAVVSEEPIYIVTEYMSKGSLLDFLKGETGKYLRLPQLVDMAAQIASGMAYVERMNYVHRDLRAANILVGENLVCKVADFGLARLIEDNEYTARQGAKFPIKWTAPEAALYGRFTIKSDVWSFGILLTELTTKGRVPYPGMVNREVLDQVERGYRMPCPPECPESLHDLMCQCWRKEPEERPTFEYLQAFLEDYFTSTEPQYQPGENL
Method: as §1, §2, §3

IGF1-R = molecular target: T4, IGF1-R (Homo sapiens, UniProt P08069); test: 33PanQinase Activity Assay, IGF1-R; format: biochemical; conditions: recombinant human protein kinase, 1 μM [γ-33P]-ATP, 30° C. 80 minutes
T4 construct: made in house; host or cells: Sf9 insect cells (baculovirus)
Method: as §1, §2, §3

PIM1 = molecular target: T5, PIM1 (Homo sapiens, UniProt P11309); test: 33PanQinase Activity Assay, PIM1; format: biochemical; conditions: recombinant human protein kinase, 1 μM [γ-33P]-ATP, 30° C. 80 minutes
T5 construct: made in house; host or cells: Sf9 insect cells (baculovirus)
T5 sequence (P11309 whole entry): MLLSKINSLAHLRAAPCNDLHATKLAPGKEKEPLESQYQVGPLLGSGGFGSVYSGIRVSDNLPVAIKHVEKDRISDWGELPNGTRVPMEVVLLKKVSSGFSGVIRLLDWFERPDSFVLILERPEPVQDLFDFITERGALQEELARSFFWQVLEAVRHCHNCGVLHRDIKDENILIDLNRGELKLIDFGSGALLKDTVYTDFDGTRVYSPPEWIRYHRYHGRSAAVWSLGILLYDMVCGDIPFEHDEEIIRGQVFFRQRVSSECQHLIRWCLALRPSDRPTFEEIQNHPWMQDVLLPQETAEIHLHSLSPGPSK
Method: as §1, §2, §3

FAK = molecular target: T6, FAK (Homo sapiens, UniProt Q05397); test: 33PanQinase Activity Assay, FAK; format: biochemical; conditions: recombinant human protein kinase, 1 μM [γ-33P]-ATP, 30° C. 80 minutes
T6 construct: made in house; host or cells: Sf9 insect cells (baculovirus)
T6 sequence (Q05397 whole entry): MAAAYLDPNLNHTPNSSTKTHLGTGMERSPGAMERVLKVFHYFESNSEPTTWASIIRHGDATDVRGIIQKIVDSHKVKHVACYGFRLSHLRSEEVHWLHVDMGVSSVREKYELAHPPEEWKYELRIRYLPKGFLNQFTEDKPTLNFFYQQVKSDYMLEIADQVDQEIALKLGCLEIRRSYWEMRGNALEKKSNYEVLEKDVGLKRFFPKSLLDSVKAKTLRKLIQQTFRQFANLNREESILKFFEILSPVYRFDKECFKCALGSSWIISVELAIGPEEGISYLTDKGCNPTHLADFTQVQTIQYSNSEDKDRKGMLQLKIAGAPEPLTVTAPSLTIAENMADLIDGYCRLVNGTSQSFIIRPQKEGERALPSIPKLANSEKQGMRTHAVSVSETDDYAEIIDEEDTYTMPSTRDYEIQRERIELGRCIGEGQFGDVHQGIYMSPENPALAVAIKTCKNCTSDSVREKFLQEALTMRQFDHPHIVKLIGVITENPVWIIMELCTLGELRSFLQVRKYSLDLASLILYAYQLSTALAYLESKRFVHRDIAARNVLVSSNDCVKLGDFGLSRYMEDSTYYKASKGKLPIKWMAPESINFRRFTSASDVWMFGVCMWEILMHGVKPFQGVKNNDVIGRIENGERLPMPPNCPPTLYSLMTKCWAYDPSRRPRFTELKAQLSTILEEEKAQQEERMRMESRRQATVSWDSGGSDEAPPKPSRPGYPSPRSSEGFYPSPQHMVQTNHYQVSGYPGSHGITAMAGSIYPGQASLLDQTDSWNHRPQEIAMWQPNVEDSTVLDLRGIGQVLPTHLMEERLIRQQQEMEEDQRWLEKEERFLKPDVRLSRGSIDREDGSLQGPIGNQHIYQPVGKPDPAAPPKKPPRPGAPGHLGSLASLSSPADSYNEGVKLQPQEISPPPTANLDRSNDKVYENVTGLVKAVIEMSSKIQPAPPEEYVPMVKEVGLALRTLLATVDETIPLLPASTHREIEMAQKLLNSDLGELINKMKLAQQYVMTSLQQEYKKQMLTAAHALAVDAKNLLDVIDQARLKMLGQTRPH
Method: as §1, §2, §3

ALK = molecular target: T7, ALK (Homo sapiens, UniProt Q9UM73); test: 33PanQinase Activity Assay, ALK; format: biochemical; conditions: recombinant human protein kinase, 1 μM [γ-33P]-ATP, 30° C. 80 minutes
T7 construct: made in house; host or cells: Sf9 insect cells (baculovirus)
T7 sequence (Q9UM73 19-1620): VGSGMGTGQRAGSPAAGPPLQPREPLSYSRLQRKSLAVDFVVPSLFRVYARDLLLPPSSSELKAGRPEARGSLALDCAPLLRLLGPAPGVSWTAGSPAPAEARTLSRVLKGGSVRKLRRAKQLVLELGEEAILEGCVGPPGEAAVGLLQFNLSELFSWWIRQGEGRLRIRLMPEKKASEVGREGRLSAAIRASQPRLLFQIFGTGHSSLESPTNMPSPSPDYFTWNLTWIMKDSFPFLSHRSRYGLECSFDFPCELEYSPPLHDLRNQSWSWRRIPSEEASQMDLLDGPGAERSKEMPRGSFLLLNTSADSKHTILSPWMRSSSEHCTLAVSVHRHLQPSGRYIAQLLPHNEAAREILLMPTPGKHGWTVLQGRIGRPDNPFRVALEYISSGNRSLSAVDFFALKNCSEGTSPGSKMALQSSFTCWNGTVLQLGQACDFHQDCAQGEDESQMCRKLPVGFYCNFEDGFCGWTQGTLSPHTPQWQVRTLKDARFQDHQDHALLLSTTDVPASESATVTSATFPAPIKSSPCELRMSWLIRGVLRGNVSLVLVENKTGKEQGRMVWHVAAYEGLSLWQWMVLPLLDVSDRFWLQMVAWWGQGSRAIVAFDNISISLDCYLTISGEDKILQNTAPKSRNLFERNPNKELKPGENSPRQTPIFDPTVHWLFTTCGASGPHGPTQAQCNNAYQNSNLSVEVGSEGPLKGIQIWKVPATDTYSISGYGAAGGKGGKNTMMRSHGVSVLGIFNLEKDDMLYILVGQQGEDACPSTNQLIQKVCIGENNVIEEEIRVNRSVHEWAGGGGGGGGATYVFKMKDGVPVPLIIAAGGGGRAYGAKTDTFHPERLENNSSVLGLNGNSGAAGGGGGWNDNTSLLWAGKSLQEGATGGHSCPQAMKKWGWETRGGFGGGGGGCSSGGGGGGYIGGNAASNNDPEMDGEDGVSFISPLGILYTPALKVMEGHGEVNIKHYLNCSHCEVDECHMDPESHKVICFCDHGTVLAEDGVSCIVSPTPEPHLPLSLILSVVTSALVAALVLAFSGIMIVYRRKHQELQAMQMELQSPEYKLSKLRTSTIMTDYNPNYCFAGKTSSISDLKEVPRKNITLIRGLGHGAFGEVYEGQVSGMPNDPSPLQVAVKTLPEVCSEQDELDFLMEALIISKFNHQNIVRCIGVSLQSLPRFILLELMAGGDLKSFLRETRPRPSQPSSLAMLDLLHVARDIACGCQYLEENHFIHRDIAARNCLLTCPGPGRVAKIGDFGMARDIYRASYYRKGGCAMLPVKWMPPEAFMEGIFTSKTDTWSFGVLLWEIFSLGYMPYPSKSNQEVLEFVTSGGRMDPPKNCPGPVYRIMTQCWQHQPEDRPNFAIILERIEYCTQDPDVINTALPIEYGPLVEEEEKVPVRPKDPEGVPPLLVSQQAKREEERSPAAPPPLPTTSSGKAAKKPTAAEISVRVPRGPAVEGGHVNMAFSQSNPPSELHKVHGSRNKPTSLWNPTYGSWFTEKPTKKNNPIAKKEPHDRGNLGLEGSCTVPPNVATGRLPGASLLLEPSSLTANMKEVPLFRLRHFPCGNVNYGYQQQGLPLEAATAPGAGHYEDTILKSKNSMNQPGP
Method: as §1, §2, §3

KIT wt = molecular target: T8, KIT wt (Homo sapiens, UniProt P10721); test: 33PanQinase Activity Assay, KIT wt; format: biochemical; conditions: recombinant human protein kinase, 1 μM [γ-33P]-ATP, 30° C. 80 minutes
T8 construct: made in house; host or cells: Sf9 insect cells (baculovirus)
T8 sequence (P10721 26-976): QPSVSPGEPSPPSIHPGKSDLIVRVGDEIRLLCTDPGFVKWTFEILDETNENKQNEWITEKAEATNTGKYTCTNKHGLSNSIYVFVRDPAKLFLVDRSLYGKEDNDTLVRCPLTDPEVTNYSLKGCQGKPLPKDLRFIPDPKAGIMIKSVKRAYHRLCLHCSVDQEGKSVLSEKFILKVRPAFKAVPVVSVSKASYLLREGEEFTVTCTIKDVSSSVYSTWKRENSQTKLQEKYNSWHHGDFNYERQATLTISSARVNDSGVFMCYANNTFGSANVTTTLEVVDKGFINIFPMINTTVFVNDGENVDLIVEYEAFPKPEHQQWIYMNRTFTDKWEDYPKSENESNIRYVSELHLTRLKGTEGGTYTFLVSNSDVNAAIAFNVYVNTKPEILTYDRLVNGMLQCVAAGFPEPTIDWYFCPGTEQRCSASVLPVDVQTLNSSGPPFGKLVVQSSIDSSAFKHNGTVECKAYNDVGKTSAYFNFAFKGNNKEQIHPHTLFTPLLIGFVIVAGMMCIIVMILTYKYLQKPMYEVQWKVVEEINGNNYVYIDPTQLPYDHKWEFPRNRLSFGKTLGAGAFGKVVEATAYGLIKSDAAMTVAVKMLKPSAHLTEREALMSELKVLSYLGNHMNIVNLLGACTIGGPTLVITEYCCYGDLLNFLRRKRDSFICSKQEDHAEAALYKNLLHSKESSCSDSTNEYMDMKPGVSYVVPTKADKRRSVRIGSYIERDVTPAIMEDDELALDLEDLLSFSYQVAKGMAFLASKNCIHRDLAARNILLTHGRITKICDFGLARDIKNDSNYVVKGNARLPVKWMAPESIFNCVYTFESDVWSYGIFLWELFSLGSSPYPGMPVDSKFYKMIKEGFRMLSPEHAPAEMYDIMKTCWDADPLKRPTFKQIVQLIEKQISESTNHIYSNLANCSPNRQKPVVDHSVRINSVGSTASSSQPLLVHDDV
Method: as §1, §2, §3

SMILES | IC50 (AXL) [µM] | IC50 (VEGF-R2) [µM] | IC50 (SRC) [µM] | IC50 (IGF1-R) [µM] | melting point [°C] | IC50 (PIM1) [µM] | IC50 (FAK) [µM] | IC50 (ALK) [µM] | IC50 (KIT wt) [µM]
O=S1(=O)CCC(Cc2nnc(Sc3ncnc4cc(-c5ccc(F)cc5)sc34)o2)C1 (stereo not drawn) [Compound 8k, 3-{[5-({6-[4-Fluorophenyl]thieno[3,2-d]pyrimidin-4-yl}thio)-1,3,4-oxadiazol-2-yl]methyl}-tetrahydrothiophene-1,1-dioxide] | 4.58 | 2.05 | 2.62 | 7.65 | 180 to 182 | 26.3 | 5.76 | 2.95 | 
c1ccc(-c2nc3c(Sc4nnc(-c5ccncc5)o4)ncnc3[nH]2)cc1 [Compound 8s, 2-[(8-Phenyl-9H-purin-6-yl)thio]-5-(pyridin-4-yl)-1,3,4-oxadiazole] | 24 |  | 19 |  | 250 to 251 |  | 26 | 27 | 
COc1ccc(-c2cc3ncnc(Sc4nnc(-c5ccccc5)o4)c3s2)cc1 [Compound 8m, 2-{[6-(4-Methoxyphenyl)thieno[3,2-d]pyrimidin-4-yl]thio}-5-phenyl-1,3,4-oxadiazole] | 0.94 |  | 0.032 |  | 213 to 215 |  | 0.83 | 0.97 | 
COc1ccc(-c2cc3ncnc(Sc4nnnn4C4CC4)c3s2)cc1 [Compound 9e] | 9.76 |  |  |  |  |  | 7.89 | 2.76 | 1.3
COc1ccc(-c2cc3ncnc(Sc4nnc(-c5ccc(Cl)cc5)o4)c3s2)cc1 [Compound 8n, 2-(4-Chlorophenyl)-5-{[6-(4-methoxyphenyl)thieno[3,2-d]pyrimidin-4-yl]thio}-1,3,4-oxadiazole] | 2.7 |  | 0.55 |  | 221 to 223 |  | 1.4 | 1 | 
c1ccc(-c2nc3c(Sc4nnc(-c5ccco5)o4)ncnc3[nH]2)cc1 [Compound 8u, 2-(Furan-2-yl)-5-[(8-phenyl-9H-purin-6-yl)thio]-1,3,4-oxadiazole] | 40 |  | 11 |  | 224 to 225 |  | 23 | 22 | 
COc1ccc(-c2cc3nc(N)nc(Sc4nnc(-c5ccc(Cl)cc5)o4)c3s2)cc1 [Compound 8r, 4-{[5-(4-Chlorophenyl)-1,3,4-oxadiazol-2-yl]thio}-6-(4-methoxyphenyl)thieno[3,2-d]pyrimidin-2-amine] | 1.2 |  | 0.65 |  | 206 to 208 |  | 0.9 | 0.73 | 
COCCNc1nnc(Sc2ncnc3cc(-c4ccc(OC)cc4)sc23)s1 [Compound 9f] | 5.2 |  |  |  |  |  | 16.7 | 3.51 | 0.804
COc1ccc(-c2cc3ncnc(Sc4n[nH]/c(=N\C5CC5)s4)c3s2)cc1 [Compound 9h] | 10.1 |  |  |  |  |  | 10.5 | 2.72 | 0.873
COc1ccc(-c2cc3ncnc(Sc4nnc(-c5ccccc5C)o4)c3s2)cc1 [Compound 8p, 2-{[6-(4-methoxyphenyl)thieno[3,2-d]pyrimidin-4-yl]thio}-5-(o-tolyl)-1,3,4-oxadiazole] | 1.9 |  | 0.68 |  | 184 to 186 |  | 1.3 | 0.92 | 
Fc1ccc(-c2cc3ncnc(Sc4nnc(CN5CCOCC5)o4)c3s2)cc1 [Compound 8d, 4-{[5-({6-[4-Fluorophenyl]thieno[3,2-d]pyrimidin-4-yl}thio)-1,3,4-oxadiazol-2-yl]methyl}morpholine] | 7.66 |  |  |  |  |  |  | 5.59 | 3.85
Cn1nnnc1Sc1ncnc2cc(-c3ccc(F)cc3)sc12 [Compound 9d] | 28.9 |  |  |  |  |  | 13.6 | 13.6 | 2.41
